The structures appear in SMILES notation.

Assay [1] addresses Trypsin. Nature of the assay: Fluorescence polarization saturation binding of fluorescent probe to Trypsin (control protein). Conditions: saturation-binding format, read-out: Sinefungin Probe 1A Affinity. The protocol: (§1) Sinefungin Probe 1A was tested for the ability to bind to 16 proteins, including several non-methlytransferase protein controls (Table 2). This probe binds to 4 methyltransferases (SET7/9, G9a, GLP, MLL) with Kd values <2 μM.
(In general: Fluorescence polarisation rises when a labelled molecule tumbles more slowly, as on binding a larger partner.)

In assay [2] the target is T1, NSD2 (Homo sapiens, UniProt O96028).
T1 construct: purchased Cayman 10758
T1 sequence (O96028 1-1365): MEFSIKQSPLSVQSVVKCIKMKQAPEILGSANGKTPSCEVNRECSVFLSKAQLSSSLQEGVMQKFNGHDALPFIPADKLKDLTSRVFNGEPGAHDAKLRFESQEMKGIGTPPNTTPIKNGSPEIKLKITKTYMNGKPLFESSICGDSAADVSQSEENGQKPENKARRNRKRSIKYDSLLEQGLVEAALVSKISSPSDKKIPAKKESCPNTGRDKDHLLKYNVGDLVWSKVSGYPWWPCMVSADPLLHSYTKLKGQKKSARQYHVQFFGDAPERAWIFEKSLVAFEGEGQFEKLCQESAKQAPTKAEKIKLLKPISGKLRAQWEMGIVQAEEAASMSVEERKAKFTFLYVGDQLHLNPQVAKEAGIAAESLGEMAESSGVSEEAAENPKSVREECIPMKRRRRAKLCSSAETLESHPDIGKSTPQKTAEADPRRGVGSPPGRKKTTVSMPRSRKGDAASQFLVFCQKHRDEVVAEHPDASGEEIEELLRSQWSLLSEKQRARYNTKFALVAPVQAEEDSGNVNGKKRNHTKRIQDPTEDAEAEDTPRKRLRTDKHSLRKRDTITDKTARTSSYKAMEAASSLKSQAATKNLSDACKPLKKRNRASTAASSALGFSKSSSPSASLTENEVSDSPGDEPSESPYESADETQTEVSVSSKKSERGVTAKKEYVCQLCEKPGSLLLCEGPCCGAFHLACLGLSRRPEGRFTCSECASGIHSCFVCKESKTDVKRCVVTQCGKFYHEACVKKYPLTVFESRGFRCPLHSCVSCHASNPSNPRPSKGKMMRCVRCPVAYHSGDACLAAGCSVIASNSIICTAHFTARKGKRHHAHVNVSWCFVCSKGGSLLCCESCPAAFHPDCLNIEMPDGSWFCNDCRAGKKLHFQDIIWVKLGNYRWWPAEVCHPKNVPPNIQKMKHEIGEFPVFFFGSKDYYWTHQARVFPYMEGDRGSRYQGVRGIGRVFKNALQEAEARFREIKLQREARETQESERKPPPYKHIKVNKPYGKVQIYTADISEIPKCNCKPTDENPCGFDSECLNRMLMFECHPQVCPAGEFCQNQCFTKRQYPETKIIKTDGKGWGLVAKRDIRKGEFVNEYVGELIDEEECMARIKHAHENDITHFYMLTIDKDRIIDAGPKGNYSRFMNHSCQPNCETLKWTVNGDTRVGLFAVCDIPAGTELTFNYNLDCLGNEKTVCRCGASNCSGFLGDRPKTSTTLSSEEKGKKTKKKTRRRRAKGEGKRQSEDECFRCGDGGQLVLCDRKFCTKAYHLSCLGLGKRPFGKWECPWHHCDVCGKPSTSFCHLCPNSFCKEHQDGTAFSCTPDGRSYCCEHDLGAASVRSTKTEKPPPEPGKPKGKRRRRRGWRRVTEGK
Kind of assay: Fluorescence polarization saturation binding of fluorescent probe to NSD2. The method, then: (§2) Methods: The experiment was performed once, with two replicate wells for all methyltransferases per condition. The sole exception to this is NSD2 (see details below). The assay was performed in a ½ area, black, 96-well plate (Corning #3686) in a final volume of 30 μL. Methyltransferases (Table 1) were serially diluted two-fold in FP buffer (Cayman Catalog #600028) and 15 μL of a given dilution were added per well to the assay plate. Fifteen microliters of sinefungin probe 1A (10 nM) were added to each well, giving a final sinefungin probe 1A concentration of 5 nM. This concentration of sinefungin probe 1A was chosen because it had at least a 10-fold increase in fluorescence (excitation max 575 nm/emission max 615 nm) over background (buffer). The mixture was incubated in the dark at room temperature for 30 minutes and its fluorescence polarization was read using a BioTek Synergy 4.
For NSD2, the assay was performed essentially as above, but with the following changes. The assay was performed in a 20 μL total volume (10 μL NSD2/10 μL sinefungin probe 1) in low-volume, black, 384-well plates (Nunc #264705). The concentrations of sinefungin probe 1A and methyltransferase were identical to that of the 96-well format. The assay was performed once with three replicate wells per condition.

Assay [3] concerns the target Sumo. Kind of assay: Fluorescence polarization saturation binding of fluorescent probe to Sumo (control protein). To be noted: saturation-binding format, read-out: Sinefungin Probe 1A Affinity. The method, then: as §1
For assay [4], the target named is T2, SET8 (Homo sapiens, UniProt Q9NQR1).
T2 construct: purchased Cayman 10319
T2 sequence (Q9NQR1 1-393): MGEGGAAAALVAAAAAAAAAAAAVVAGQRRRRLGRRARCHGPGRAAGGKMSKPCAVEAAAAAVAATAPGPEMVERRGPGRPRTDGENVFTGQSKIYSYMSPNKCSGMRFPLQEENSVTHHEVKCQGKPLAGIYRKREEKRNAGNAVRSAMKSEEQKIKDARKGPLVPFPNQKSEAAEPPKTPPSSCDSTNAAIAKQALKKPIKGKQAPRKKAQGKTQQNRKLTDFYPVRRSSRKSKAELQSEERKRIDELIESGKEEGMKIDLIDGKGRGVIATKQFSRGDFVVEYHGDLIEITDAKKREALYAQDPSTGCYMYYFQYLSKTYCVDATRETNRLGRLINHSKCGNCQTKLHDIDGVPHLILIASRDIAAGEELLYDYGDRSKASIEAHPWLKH
Nature of the assay: Fluorescence polarization saturation binding of fluorescent probe to SET8. The protocol: as §2

The target of assay [5] is T3, PRDM9 (Homo sapiens, UniProt Q9NQV7).
T3 construct: purchased Cayman
Nature of the assay: Fluorescence polarization saturation binding of fluorescent probe to PRDM9. Conditions: saturation-binding format, mean ± SEM, read-out: Sinefungin Probe 1A Affinity. The protocol:
as §1

T3 sequence (Q9NQV7 whole entry, species assumed): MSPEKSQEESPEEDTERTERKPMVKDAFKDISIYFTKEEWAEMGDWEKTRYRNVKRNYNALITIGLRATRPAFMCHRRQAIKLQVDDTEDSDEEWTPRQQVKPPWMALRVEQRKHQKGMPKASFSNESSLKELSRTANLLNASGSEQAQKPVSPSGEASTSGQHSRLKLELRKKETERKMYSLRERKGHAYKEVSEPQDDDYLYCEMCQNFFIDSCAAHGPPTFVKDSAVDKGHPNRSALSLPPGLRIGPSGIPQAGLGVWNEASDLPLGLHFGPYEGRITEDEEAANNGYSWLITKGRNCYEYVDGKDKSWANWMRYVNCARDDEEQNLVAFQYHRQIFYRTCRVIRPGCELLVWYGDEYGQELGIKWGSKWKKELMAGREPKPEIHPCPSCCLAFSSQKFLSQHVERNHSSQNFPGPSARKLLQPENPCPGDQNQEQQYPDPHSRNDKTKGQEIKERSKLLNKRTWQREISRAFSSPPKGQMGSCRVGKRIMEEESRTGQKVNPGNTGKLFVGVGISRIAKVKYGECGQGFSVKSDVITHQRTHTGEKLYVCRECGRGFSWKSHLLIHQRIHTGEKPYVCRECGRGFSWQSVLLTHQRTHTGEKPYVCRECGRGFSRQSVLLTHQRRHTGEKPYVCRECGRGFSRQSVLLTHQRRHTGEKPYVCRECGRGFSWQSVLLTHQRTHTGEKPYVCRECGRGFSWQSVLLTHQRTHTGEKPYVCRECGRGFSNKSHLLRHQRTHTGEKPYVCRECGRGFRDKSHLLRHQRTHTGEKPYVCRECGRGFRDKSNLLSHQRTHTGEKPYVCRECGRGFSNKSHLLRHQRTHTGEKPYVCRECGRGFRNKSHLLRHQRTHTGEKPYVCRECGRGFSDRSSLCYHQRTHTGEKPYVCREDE

For `Nc1ncnc2c1ncn2[C@@H]1O[C@H](C[C@@H](N)CC[C@H](N)C(=O)O)[C@@H](OCc2cnnn2CCCCCCNC(=O)OC2CCN(C(=O)c3ccccc3C3=c4cc5c6c(c4Oc4c3cc3c7c4CCCN7CCC3)CCC[N+]=6CCC5)CC2)[C@H]1O` [Sinefungin Probe 1A], the Kd in assay [1] is above 10000 nM; in assay [2] (NSD2, saturation-binding format, read-out: Sinefungin Probe 1A Affinity), above 2000 nM; in assay [3], above 10000 nM; in assay [4] (SET8, saturation-binding format, read-out: Sinefungin Probe 1A Affinity) it was above 2000 nM; in assay [5] it was 2600 ± 600 nM. The “measurable affinity for the probe” value in assay [2] (Example 8, NSD2, 5 nM probe, 384-well, FIG. 2) is “only SET7/9 and G9a displayed measurable affinity”; in assay [4] (Example 8, SET8, 5 nM probe, FIG. 2) it was “only SET7/9 and G9a displayed measurable affinity”.

Source of the values: patent US9120820B2, “Fluorescent molecular probes for use in assays that measure test compound competitive binding with SAM-utilizing proteins” (CAYMAN CHEMICAL COMPANY, INCORPORATED, priority 2011, dated 2015).
